Each molecule was assayed against T1, human GABA A receptor α5β3γ2 (GABA Aa5) (Homo sapiens, UniProt P18507+P31644) (assay: [3H]flumazenil competition binding, HEK293 cells expressing human receptors). Details: not given.
T1 construct: expressed in transfected cells; host or cells: HEK293 cells, transiently transfected; membranes prepared
Protocol: The ability of compounds present invention to bind to GABA A receptor subtypes was determined by competition for [^3H]flumazenil (85 Ci/mmol; Roche) binding to HEK293 cells expressing rat (stably transfected) or human (transiently transfected) receptors of composition α1β2/3γ2, α2β3γ2, α3β3γ2 and α5β3γ2.
Cell pellets were suspended in Krebs-tris buffer (4.8 mM KCl, 1.2 mM CaCl2, 1.2 mM MgCl2, 120 mM NaCl, 15 mM Tris; pH 7.5; binding assay buffer), homogenized by polytron for ca. 20 sec on ice and centrifuged for 60 min at 4° C. (50000 g; Sorvall, rotor: SM24=20000 rpm). The cell pellets were resuspended in Krebs-tris buffer and homogenized by polytron for ca. 15 sec on ice. Protein was measured (Bradford method, Bio-Rad) and aliquots of 1 mL were prepared and stored at −80° C.
Assays were incubated to equilibrium for 1 hour at 4° C. and harvested onto GF/C uni-filters (Packard) by filtration using a Packard harvester and washing with ice-cold wash buffer (50 mM Tris; pH 7.5). After drying, filter-retained radioactivity was detected by liquid scintillation counting.
Ki values were calculated using Excel-Fit (Microsoft) and are the means of two determinations.
Representative test results, obtained by the above described assay measuring binding affinity to HEK293 cells expressing human (h) receptors, are shown in Table 1 below.

Row | Structure (SMILES) | Ki [nM]
1 | CC(=O)c1ccc(-n2cnc(-c3c(-c4ccccc4F)nnn3C)c2)cc1 [Example 10, 1-(4-(4-(4-(2-Fluorophenyl)-1-methyl-1H-1,2,3-triazol-5-yl)-1H-imidazol-1-yl)phenyl)ethanone] | 29.6

Same assay, conditions: displacement of [3H]flumazenil 0.5 nM; HEK293 transiently transfected human receptors; means of two determinations; read-out: hKi (GABA Aa5)

Row | Structure (SMILES) | Ki [nM]
2 | CC(=O)c1ccc(-n2cnc(-c3c(-c4ccc(F)cc4)nnn3C)c2)cc1 [Example 1, 1-(4-{4-[5-(4-Fluoro-phenyl)-3-methyl-3H-[1,2,3]triazol-4-yl]-imidazol-1-yl}-phenyl)-ethanone] | 27.2
3 | COC(=O)c1ccc(-n2cnc(-c3c(-c4ccc(F)cc4)nnn3C)c2)cc1 [Example 2, 4-{4-[5-(4-Fluoro-phenyl)-3-methyl-3H-[1,2,3]triazol-4-yl]-imidazol-1-yl}-benzoic acid methyl ester] | 41.2
4 | CC(C)NC(=O)c1ccc(-n2cnc(-c3c(-c4ccc(F)cc4)nnn3C)c2)cc1 [Example 3, 4-{4-[5-(4-Fluoro-phenyl)-3-methyl-3H-[1,2,3]triazol-4-yl]-imidazol-1-yl}-N-isopropyl-benzamide] | 21.1
5 | Cn1nnc(-c2ccc(F)cc2)c1-c1cn(-c2ccc(C(=O)NC3CCOCC3)cc2)cn1 [Example 4, 4-{4-[5-(4-Fluoro-phenyl)-3-methyl-3H-[1,2,3]triazol-4-yl]-imidazol-1-yl}-N-(tetrahydropyran-4-yl)-benzamide] | 36.6
6 | Cn1nnc(-c2ccc(F)cc2)c1-c1cn(-c2ccc(C(=O)NC3(C)COC3)cc2)cn1 [Example 5, 4-{4-[5-(4-Fluoro-phenyl)-3-methyl-3H-[1,2,3]triazol-4-yl]-imidazol-1-yl}-N-(3-methyl-oxetan-3-yl)-benzamide] | 23.8
7 | Cn1nnc(-c2ccc(F)cc2)c1-c1cn(-c2ccc(C(=O)N3CC4(COC4)C3)cc2)cn1 [Example 6, (4-{4-[5-(4-Fluoro-phenyl)-3-methyl-3H-[1,2,3]triazol-4-yl]-imidazol-1-yl}-phenyl)-(2-oxa-6-aza-spiro[3.3]hept-6-yl)-methanone] | 51.3
8 | Cn1nnc(-c2ccc(F)cc2)c1-c1cn(-c2ccc(C(N)=O)cc2)cn1 [Example 7, 4-{4-[5-(4-Fluoro-phenyl)-3-methyl-3H-[1,2,3]triazol-4-yl]-imidazol-1-yl}-benzamide] | 18.8
9 | Cn1nnc(-c2ccccc2F)c1-c1cn(-c2ccc(C(F)(F)F)cc2)cn1 [Example 8, 4-(2-Fluorophenyl)-1-methyl-5-(1-(4-(trifluoromethyl)phenyl)-1H-imidazol-4-yl)-1H-1,2,3-triazole] | 84.3
10 | Cn1nnc(-c2ccccc2F)c1-c1cn(-c2ccc([N+](=O)[O-])cc2)cn1 [Example 9, 4-(2-Fluorophenyl)-1-methyl-5-(1-(4-nitrophenyl)-1H-imidazol-4-yl)-1H-1,2,3-triazole] | 76.3
11 | CC(C)NC(=O)c1ccc(-n2cnc(-c3c(-c4ccc(F)cc4)nnn3C)c2)nc1 [Example 11, 6-{4-[5-(4-Fluoro-phenyl)-3-methyl-3H-[1,2,3]triazol-4-yl]-imidazol-1-yl}-N-isopropyl-nicotinamide] | 14.7
12 | Cn1nnc(-c2ccc(F)cc2)c1-c1cn(-c2ccc(C(=O)NC3CCOCC3)cn2)cn1 [Example 12, 6-{4-[5-(4-Fluoro-phenyl)-3-methyl-3H-[1,2,3]triazol-4-yl]-imidazol-1-yl}-N-(tetrahydropyran-4-yl)-nicotinamide] | 33
13 | Cn1nnc(-c2ccc(F)cc2)c1-c1cn(-c2ccc(C(=O)NC3(C)COC3)cn2)cn1 [Example 13, 6-{4-[5-(4-Fluoro-phenyl)-3-methyl-3H-[1,2,3]triazol-4-yl]-imidazol-1-yl}-N-(3-methyl-oxetan-3-yl)-nicotinamide] | 14.6
14 | Cn1nnc(-c2ccc(F)cc2)c1-c1cn(-c2ccc(C(=O)N3CC4(COC4)C3)cn2)cn1 [Example 14, (6-{4-[5-(4-Fluoro-phenyl)-3-methyl-3H-[1,2,3]triazol-4-yl]-imidazol-1-yl}-pyridin-3-yl)-(2-oxa-6-aza-spiro[3.3]hept-6-yl)-methanone] | 37.6
15 | Cn1nnc(-c2ccc(F)cc2)c1-c1cn(-c2ccc(C(F)(F)F)cn2)cn1 [Example 15, 2-{4-[5-(4-Fluoro-phenyl)-3-methyl-3H-[1,2,3]triazol-4-yl]-imidazol-1-yl}-5-trifluoromethyl-pyridine] | 82.2
16 | Cn1nnc(-c2ccc(F)cc2)c1-c1cn(-c2ccc(C(N)=O)cn2)cn1 [Example 16, 6-(4-(4-(4-Fluorophenyl)-1-methyl-1H-1,2,3-triazol-5-yl)-1H-imidazol-1-yl)nicotinamide] | 12.1
17 | COC(=O)c1ccc(-n2cnc(-c3c(-c4ccccc4Cl)nnn3C)c2)nc1 [Example 17, Methyl 6-(4-(4-(2-chlorophenyl)-1-methyl-1H-1,2,3-triazol-5-yl)-1H-imidazol-1-yl)nicotinate] | 68.8

Row | Structure (SMILES) | Ki [nM]
18 | CC(C)NC(=O)c1ccc(-n2cnc(-c3c(-c4ccccc4Cl)nnn3C)c2)nc1 [Example 18, 6-(4-(4-(2-Chlorophenyl)-1-methyl-1H-1,2,3-triazol-5-yl)-1H-imidazol-1-yl)-N-isopropylnicotinamide] | 75.1
19 | Cn1nnc(-c2ccccc2Cl)c1-c1cn(-c2ccc(C(N)=O)cn2)cn1 [Example 19, 6-(4-(4-(2-Chlorophenyl)-1-methyl-1H-1,2,3-triazol-5-yl)-1H-imidazol-1-yl)nicotinamide] | 66.2
20 | COC(=O)c1ccc(-n2cnc(-c3c(-c4ccccc4F)nnn3C)c2)nc1 [Example 20, Methyl 6-(4-(4-(2-fluorophenyl)-1-methyl-1H-1,2,3-triazol-5-yl)-1H-imidazol-1-yl)nicotinate] | 16.2
21 | Cn1nnc(-c2ccccc2F)c1-c1cn(-c2ccc(C(=O)O)cn2)cn1 [Example 21, 6-(4-(4-(2-Fluorophenyl)-1-methyl-1H-1,2,3-triazol-5-yl)-1H-imidazol-1-yl)nicotinic acid] | 86
22 | Cn1nnc(-c2ccccc2F)c1-c1cn(-c2ccc(C(=O)NC3CCOCC3)cn2)cn1 [Example 22, 6-(4-(4-(2-Fluorophenyl)-1-methyl-1H-1,2,3-triazol-5-yl)-1H-imidazol-1-yl)-N-(tetrahydro-2H-pyran-4-yl)nicotinamide] | 43.3
23 | CC(C)NC(=O)c1ccc(-n2cnc(-c3c(-c4ccccc4F)nnn3C)c2)nc1 [Example 23, 6-(4-(4-(2-Fluorophenyl)-1-methyl-1H-1,2,3-triazol-5-yl)-1H-imidazol-1-yl)-N-isopropylnicotinamide] | 54.9
24 | Cn1nnc(-c2ccccc2F)c1-c1cn(-c2ccc(C(=O)NCC(C)(C)O)cn2)cn1 [Example 24, 6-(4-(4-(2-Fluorophenyl)-1-methyl-1H-1,2,3-triazol-5-yl)-1H-imidazol-1-yl)-N-(2-hydroxy-2-methylpropyl)nicotinamide] | 21.3
25 | Cn1nnc(-c2ccccc2F)c1-c1cn(-c2ccc(C(N)=O)cn2)cn1 [Example 25, 6-(4-(4-(2-Fluorophenyl)-1-methyl-1H-1,2,3-triazol-5-yl)-1H-imidazol-1-yl)nicotinamide] | 19.3
26 | Cn1nnc(-c2ccccc2F)c1-c1cn(-c2ccc(C(=O)N3CC4(COC4)C3)cn2)cn1 [Example 26, (6-(4-(4-(2-Fluorophenyl)-1-methyl-1H-1,2,3-triazol-5-yl)-1H-imidazol-1-yl)pyridin-3-yl)(2-oxa-6-azaspiro[3.3]heptan-6-yl)methanone] | 66.5
27 | Cn1nnc(-c2ccccc2F)c1-c1cn(-c2ccc(C(=O)NC3(C)COC3)cn2)cn1 [Example 27, 6-(4-(4-(2-Fluorophenyl)-1-methyl-1H-1,2,3-triazol-5-yl)-1H-imidazol-1-yl)-N-(3-methyloxetan-3-yl)nicotinamide] | 16.1
28 | Cn1nnc(-c2ccccc2F)c1-c1cn(-c2ccc(C(=O)NN3CCOCC3)cn2)cn1 [Example 28, 6-(4-(4-(2-Fluorophenyl)-1-methyl-1H-1,2,3-triazol-5-yl)-1H-imidazol-1-yl)-N-morpholinonicotinamide] | 32.4
29 | Cn1nnc(-c2ccccc2F)c1-c1cn(-c2ccc(C(=O)NC3CC3)cn2)cn1 [Example 29, N-Cyclopropyl-6-(4-(4-(2-fluorophenyl)-1-methyl-1H-1,2,3-triazol-5-yl)-1H-imidazol-1-yl)nicotinamide] | 9.5
30 | Cn1nnc(-c2ccccc2F)c1-c1cn(-c2ccc(C(F)(F)F)cn2)cn1 [Example 30, 2-(4-(4-(2-Fluorophenyl)-1-methyl-1H-1,2,3-triazol-5-yl)-1H-imidazol-1-yl)-5-(trifluoromethyl)pyridine] | 65
31 | Cc1nnn(-c2ccc(F)cc2)c1-c1cn(-c2ccc(C(F)(F)F)cc2)cn1 [Example 31, 1-(4-Fluoro-phenyl)-4-methyl-5-[1-(4-trifluoromethyl-phenyl)-1H-imidazol-4-yl]-1H-[1,2,3]triazole] | 49.2
32 | CC(=O)c1ccc(-n2cnc(-c3c(C)nnn3-c3ccc(F)cc3)c2)cc1 [Example 32, 1-(4-{4-[3-(4-Fluoro-phenyl)-5-methyl-3H-[1,2,3]triazol-4-yl]-imidazol-1-yl}-phenyl)-ethanone] | 25.9
33 | COC(=O)c1ccc(-n2cnc(-c3c(C)nnn3-c3ccccc3F)c2)cc1 [Example 33, Methyl 4-(4-(1-(2-fluorophenyl)-4-methyl-1H-1,2,3-triazol-5-yl)-1H-imidazol-1-yl)benzoate] | 34.5

Source: US8466181B2, “1,2,3-triazole-imidazole compounds” (Hoffmann-La Roche Inc., priority 2010, dated 2013)
